We go through one compound from US20180242591A1, “Insect Repellent” (Evolva SA, priority 2015, published 2018).

The assay relates to female Aedes aegypti mosquitoes. Briefly: In vitro repellency against mosquitoes, treated collagen membranes over blood-filled wells. The assay is classed as in vivo. Particulars: 20% DEET in ethanol (positive control), 25 μL on membrane; probes over 20 minutes; five replicates. Here is the method: A laboratory trial was conducted to evaluate the repellency of santalol against female Aedes aegypti mosquitoes using an in vitro method. A 20% DEET positive control and untreated and ethanol negative controls were also assessed for comparison purposes. Test substances were applied to prepared collagen membranes placed over heated, blood-filled wells and exposed to mosquitoes. The number of mosquitoes probing each well was recorded at two minute intervals up to 20 minutes. Female adult laboratory reared Aedes aegypti mosquitoes (susceptible) were obtained from Benzon Research in Carlisle, Pa. 250 mosquitoes were used per replicate (5 replicates per test). Adult mosquitoes were 3-8 days old. Santalol was diluted in ethanol to 2% and 5% concentrations. A positive control consisting of 20% DEET in ethanol was prepared using stock solutions. Negative controls consisted of no treatment, and ethanol-only treatment. […] The number of mosquitoes probing each membrane was recorded every two minutes for twenty minutes. […] Percent repellency was calculated for each replicate using the total number of probes with the following formula: [formula] […] Average percent repellency and standard error (SE) were calculated across all five replicates. […]

The structures appear in SMILES notation. Values joined by “and” are separate entries in the source; they are usually repeats but may differ in a detail not shown here. Identical values can stand only once.

For the compound `CCN(CC)C(=O)c1cccc(C)c1` [20% DEET, N,N-Diethyl-meta-toluamide], the “Average percent repellency ± SE” value is 93.9% and 93.9 ± 2.3%.
